Drawing on ChEMBL document CHEMBL1221243, “Design, synthesis, and biological evaluation of a novel series of quercetin diacylglucosides as potent anti-MRSA and anti-VRE agents” (Bioorg Med Chem Lett, 2010), this text covers MIC, IC50 and Ki for two compounds.

SMILES strings stand for the structures. Converted amounts (≈) assume the structure as drawn.

Assay [1] concerns Staphylococcus aureus. Briefly: Antimicrobial activity against methicillin-resistant Staphylococcus aureus OM481 after 24 hrs by microdilution assay. Format: functional. As to conditions: OM481, 24 h. Background: In broth dilution the organism is exposed to a series of concentrations in liquid medium.
For assay [2], the system named is Staphylococcus aureus. Nature of the assay: Antimicrobial activity against methicillin-resistant Staphylococcus aureus OM584 after 24 hrs by microdilution assay. Format: functional. The settings on record: OM584, 24 h.
For assay [3], the system named is Staphylococcus aureus. Nature of the assay: Antimicrobial activity against methicillin-resistant Staphylococcus aureus N315 after 24 hrs by microdilution assay. Format: functional. As to conditions: N315, 24 h.
The test system of assay [4] is Staphylococcus aureus. Nature of the assay: Antimicrobial activity against methicillin-resistant Staphylococcus aureus COL after 24 hrs by microdilution assay. In kind it is functional.
Assay [5] relates to Staphylococcus aureus. Nature of the assay: Antimicrobial activity against methicillin-sensitive Staphylococcus aureus 209P after 24 hrs by microdilution assay. In kind it is functional.
Assay [6] is described as follows: Inhibition of Escherichia coli DNA gyraseB assessed as inhibition of pBR322 supercoiling by densitometry.
A further assay has as its system Escherichia coli. Briefly: Antimicrobial activity against Escherichia coli K-12 after 24 hrs by microdilution assay. In kind it is functional. The settings on record: K-12, 24 h.
The nature of assay [7]: Inhibition of Escherichia coli DNA gyraseB calculated by AutoDock docking into the ATP binding site.
The subject of assay [8] is Enterococcus. Briefly: Antimicrobial activity against vancomycin-resistant Enterococcus FN-1 after 24 hrs by microdilution assay. As to conditions: FN-1, 24 h. Format: functional.
Assay [9] deals with Enterococcus. Nature of the assay: Antimicrobial activity against vancomycin-resistant Enterococcus NCTC 12201 after 24 hrs by microdilution assay. Format: functional. The settings on record: NCTC 12201, 24 h.
In assay [10] the test system is Staphylococcus aureus. Briefly: Antimicrobial activity against vancomycin intermediate-resistant Staphylococcus aureus Mu50 after 24 hrs by microdilution assay. In kind it is functional. The settings on record: Mu50, 24 h.

For the compound `CCn1cc(C(=O)O)c(=O)c2cc(F)c(N3CCNCC3)cc21` [NORFLOXACIN], the MIC (usually the smallest concentration in the dilution series that meets the test's criterion for growth inhibition) against Staphylococcus aureus [1] amounted to 64 µg/mL (≈ 200 µM); with Staphylococcus aureus [2], 128 µg/mL (≈ 401 µM); against Staphylococcus aureus [3], 2 µg/mL (≈ 6.26 µM); with Staphylococcus aureus [4] it was 1 µg/mL (≈ 3.13 µM); in the assay with Staphylococcus aureus [5], 0.5 µg/mL (≈ 1.57 µM); against Escherichia coli, 0.25 µg/mL (≈ 0.783 µM). Also, the IC50 (in general, the concentration that inhibits the measured activity by half) in assay [6] is 90 nM. Further, in [7], the inhibition constant Ki (commonly the equilibrium dissociation constant of an inhibitor or competing ligand from its target) was 0.09 nM.
In the case of `CN[C@H](CC(C)C)C(=O)N[C@H]1C(=O)N[C@@H](CC(N)=O)C(=O)N[C@H]2C(=O)N[C@H]3C(=O)N[C@H](C(=O)N[C@H](C(=O)O)c4cc(O)cc(O)c4-c4cc3ccc4O)[C@H](O)c3ccc(c(Cl)c3)Oc3cc2cc(c3O[C@@H]2O[C@H](CO)[C@@H](O)[C@H](O)[C@H]2O[C@H]2C[C@](C)(N)[C@H](O)[C@H](C)O2)Oc2ccc(cc2Cl)[C@H]1O` [VANCOMYCIN], the MIC was greater than 128 µg/mL in the assay with Enterococcus [8]; greater than 128 µg/mL in the assay with Enterococcus [9]; 8 µg/mL (≈ 5.52 µM) against Staphylococcus aureus [10]; 0.25 µg/mL (≈ 0.173 µM) against Staphylococcus aureus [1]; 0.25 µg/mL (≈ 0.173 µM) in the assay with Staphylococcus aureus [2]; 0.25 µg/mL (≈ 0.173 µM) with Staphylococcus aureus [3]. The minimum inhibitory concentration (MIC) against Staphylococcus aureus [4] and against Staphylococcus aureus [5] was 0.25 µg/mL (≈ 0.173 µM) throughout.
